Here are results for six molecules from patent publication US20110165660A1, “ENGINEERED MICROORGANISMS WITH ENHANCED FERMENTATION ACTIVITY” (VERDEZYNE, INC., priority 2009, published 2011).

Changes are numbered by the printed parent chain. Names and notes keep the numbering of the source.

Data set [1] addresses S. cerevisiae ZWF1 variant A51D (mutant 4) (Saccharomyces cerevisiae, UniProt P11412, A51D). Kind of data set: Cofactor preference of ZWF1 mutants (NAD+ vs NADP+). It counts as biochemical. The conditions noted are these: initial kinetic screening, preliminary cofactor phenotype. Here is the method: (§1) Strain BY4742 zwf1 (ATCC Cat. No. 4011971; Winzeler E A, et al. Science 285: 901-906, 1999. PubMed: 10436161) was used as the base strain for all ZWF1 assays. The assays were performed as follows: A 5 ml overnight of the strain expressing the ZWF1 gene was grown in SCD-ura. A 50 ml culture of the strain was then grown for about 18 hours from an initial OD600 of about 0.2 until it had reached about OD600 of about 4. The cells were centrifuged at 1046×g washed twice with 25 ml cold sterile water, and resuspended in 2 ml/g Yper Plus (Thermo Scientific) plus 1×protease inhibitors (EDTA-free). The cells were allowed to lyse at room temperature for about 30 minutes with constant rotation of the tubes. The lysate was centrifuged at 16,100×g for 10 minutes at 4° C. and the supernatants were transferred to a new 1.5 ml microcentrifuge tube. Quantification of the lysates was performed using the Coomassie-Plus kit (Thermo Scientific, San Diego, Calif.) as directed by the manufacturer.
(§2) The reaction was started with 20 mM glucose-6-phosphate and the reaction was monitored at A340. The specific activity was measured as the μmol substrate/min/mg protein.
Site-directed mutagenesis was used to alter of ZWF1 so that the altered ZWF1 could also utilize NAD+, thereby improving the REDOX balance within the cell. […]

In data set [2] the target is S. cerevisiae ZWF1 (glucose-6-phosphate dehydrogenase) variant A24G (mutant 1) (Saccharomyces cerevisiae, UniProt P11412, A24G). Put plainly: Cofactor usage of ZWF1 mutants (initial kinetic screening, NAD+ vs NADP+). The conditions noted are these: preliminary cofactor phenotype. It is filed as biochemical. On the procedure:
as §1, §2
(§3) Site directed mutagenesis reactions were performed in the same manner for all mutations, and for mutants which include more than one mutation, each mutation was performed sequentially. About 50 ng of plasmid DNA was added to 1×Pfu Ultra II buffer, 0.3 mM dNTPs, […] site directed mutagenesis specific primers, and 1 U Pfu Ultra II polymerase (Agilent, La Jolla, Calif.) in a 50 μl reaction mix. The reaction was cycled at 95° C. for 10 minutes, followed by 15 rounds of 95° C. for 15 seconds, 55° C. for 40 seconds, and 72° C. for 3 minutes. A final 10 minute extension reaction at 72° C. was also included. The PCR reaction mixture was then digested with 30 U of Dpnl for about 2 hours and 5 μl of the digested PCR reaction mixture was used to transform competent DH5α (Zymo Research, Orange, Calif.) and plated onto LB plates containing the appropriate antibiotics. The table below lists mutants generated in a first round of mutagenesis.

Data set [3] concerns the target S. cerevisiae ZWF1 (glucose-6-phosphate dehydrogenase) variant A24G/T28G (mutant 2) (Saccharomyces cerevisiae, UniProt P11412, A24G/T28G). The data set is described as above. It is filed as biochemical. The conditions noted are these: preliminary cofactor phenotype. On the procedure: as §1, §2, §3
Data set [4] concerns the target S. cerevisiae ZWF1 (glucose-6-phosphate dehydrogenase) variant A51N (mutant 3) (Saccharomyces cerevisiae, UniProt P11412, A51N). The data set is described as above. It counts as biochemical. The settings on record: preliminary cofactor phenotype. On the procedure: as §1, §2, §3
The target in data set [5] is S. cerevisiae ZWF1 (glucose-6-phosphate dehydrogenase) variant F33Y (mutant 8) (Saccharomyces cerevisiae, UniProt P11412, F33Y). The description is as above. It counts as biochemical. The conditions noted are these: preliminary cofactor phenotype. On the procedure:
as §1, §2, §3

Data set [6] concerns the target S. cerevisiae ZWF1 (glucose-6-phosphate dehydrogenase) variant K46R (mutant 6) (Saccharomyces cerevisiae, UniProt P11412, K46R). Described as above. It counts as biochemical. The settings on record: preliminary cofactor phenotype. On the procedure: as §1, §2, §3
The target in data set [7] is S. cerevisiae ZWF1 (glucose-6-phosphate dehydrogenase) variant T28F (mutant 5) (Saccharomyces cerevisiae, UniProt P11412, T28F). Described as above. It counts as biochemical. The conditions noted are these: preliminary cofactor phenotype. Here is the method: as §1, §2, §3
The target of data set [8] is S. cerevisiae ZWF1 (glucose-6-phosphate dehydrogenase) variant Y40L (mutant 7) (Saccharomyces cerevisiae, UniProt P11412, Y40L). The description is as above. It counts as biochemical. The conditions noted are these: preliminary cofactor phenotype. Here is the method:
as §1, §2, §3

Substrate in data set [9]: OC1OC[C@@H](O)[C@H](O)[C@H]1O
Put plainly: purified protein, by the assay type. It is filed as biochemical, Ruminococcus flavefaciens / Piromyces. The conditions noted are these: other: xylose 40-500 mM, pH 7.5, about 30° C.

Substrate in data set [10]: OC1OC[C@@H](O)[C@H](O)[C@H]1O
Put plainly: purified protein, by the assay type. It is filed as biochemical, Ruminococcus flavefaciens / Piromyces. The conditions noted are these: other: xylose 40-500 mM, pH 7.5, about 30° C. From the text: To generate the chimeric XI-Rp10 gene, the 5′ primer KAS/XI-R-P6-10 and 3′ primer KAS/3-XI-RF-NATIVE were first used to add nucleotides 16-30 from the XI-P gene to the 5′ end of the XI-R gene keeping the remainder of the XI-R gene in-frame. […] Following PCR purification of the resulting XI-Rp6-10 amplified product, 5′ primer KAS/XI-R-P1-10 and either the 3′ primer KAS/3-XI-RF-NATIVE or the 3′ primer KAS/3-XI-RF-NATIVE-HIS oligonucleotides were used to add additional sequences.
The source holds these as a separate data set.

Substrate in data set [11]: OC1OC[C@@H](O)[C@H](O)[C@H]1O
Put plainly: purified protein, by the assay type. The settings on record: other: xylose 40-500 mM, pH 7.5, about 30° C. It counts as biochemical, Ruminococcus flavefaciens / Piromyces. From the text: Following PCR purification of the resulting XI-Rp6-15 amplified product, 5′ primer KAS/XI-R-P1-15 either 3′ primer KAS/3-XI-RF-NATIVE or 3′ primer KAS/3-XI-RF-NATIVE-HIS oligonucleotides were used to add additional sequences.
The source holds these as a separate data set.

Substrate in data set [12]: OC1OC[C@@H](O)[C@H](O)[C@H]1O
Kind of data set: cells, lysate or membranes. It is filed as biochemical, Ruminococcus flavefaciens. The conditions noted are these: other: xylose about 40 to about 500 mM, pH 7.5, about 30° C. Here is the method:
A series of specific point mutations were made to the “hot rod” Ruminococcus xylose isomerase gene using site-directed mutagenesis.
Site directed mutagenesis was performed as follows: About 50 ng of template DNA was added to 1×Pfu Ultra II buffer, 0.3 mM dNTPs, […] of the relevant mutagenesis primers depending on the mutant being constructed and 1 U Pfu Ultra 11 polymerase (Agilent, La Jolla, Calif.) in a 50 μl reaction mix. The “hot rod” Ruminococcus xylose isomerase gene was used as the template DNA for constructing single point mutation variants. Previously engineered mutants sometimes were used as “template” DNA to generate other mutants. Each reaction was PCR cycled as follows: 95° C. 10 minutes followed by 30 rounds of 95° C. for 20 seconds, 55° C. for 30 seconds, and 72° C. for 5 minutes. A final 5 minute extension reaction at 72° C. was also included. Following PCR, 1.5 μl of Dpnl (NEB, Ipswich, Mass.) was added and allowed to digest the reaction mixture for 1 to 1.5 hours at 37° C. 5 μl of this mixture was then used to transform NEB-5a cells (NEB, Ipswich, Mass.) and plated onto LB media with ampicillin (100 μg/ml). (Table below discloses SEQ ID NOS 229-256, respectively, in order of appearance)

S. cerevisiae ZWF1 variant A51D (mutant 4), sequence (P11412 whole entry A51D): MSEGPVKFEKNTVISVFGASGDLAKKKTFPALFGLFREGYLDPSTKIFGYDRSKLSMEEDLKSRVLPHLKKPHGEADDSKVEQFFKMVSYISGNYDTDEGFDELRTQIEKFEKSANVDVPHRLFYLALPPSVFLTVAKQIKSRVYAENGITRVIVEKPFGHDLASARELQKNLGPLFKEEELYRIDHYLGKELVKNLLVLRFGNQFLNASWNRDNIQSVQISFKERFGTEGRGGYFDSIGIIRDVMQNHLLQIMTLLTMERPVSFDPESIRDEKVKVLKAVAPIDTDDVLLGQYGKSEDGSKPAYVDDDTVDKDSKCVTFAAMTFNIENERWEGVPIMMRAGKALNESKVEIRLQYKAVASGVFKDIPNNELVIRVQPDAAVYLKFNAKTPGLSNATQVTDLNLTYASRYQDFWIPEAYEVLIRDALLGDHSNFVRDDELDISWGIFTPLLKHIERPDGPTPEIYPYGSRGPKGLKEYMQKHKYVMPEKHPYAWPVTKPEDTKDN
S. cerevisiae ZWF1 (glucose-6-phosphate dehydrogenase) variant Y40L (mutant 7), sequence (P11412 whole entry Y40L): as the sequence (P11412 whole entry A51D) above, with Y40L, D51A counted along it
S. cerevisiae ZWF1 (glucose-6-phosphate dehydrogenase) variant A24G (mutant 1), sequence (P11412 whole entry A24G): as the sequence (P11412 whole entry A51D) above, with A24G, D51A counted along it
S. cerevisiae ZWF1 (glucose-6-phosphate dehydrogenase) variant K46R (mutant 6), sequence (P11412 whole entry K46R): as the sequence (P11412 whole entry A51D) above, with K46R, D51A counted along it
S. cerevisiae ZWF1 (glucose-6-phosphate dehydrogenase) variant F33Y (mutant 8), sequence (P11412 whole entry F33Y): as the sequence (P11412 whole entry A51D) above, with F33Y, D51A counted along it
S. cerevisiae ZWF1 (glucose-6-phosphate dehydrogenase) variant A24G/T28G (mutant 2), sequence (P11412 whole entry A24G/T28G): as the sequence (P11412 whole entry A51D) above, with A24G, T28G, D51A counted along it
S. cerevisiae ZWF1 (glucose-6-phosphate dehydrogenase) variant T28F (mutant 5), sequence (P11412 whole entry T28F): as the sequence (P11412 whole entry A51D) above, with T28F, D51A counted along it
S. cerevisiae ZWF1 (glucose-6-phosphate dehydrogenase) variant A51N (mutant 3), sequence (P11412 whole entry A51N): as the sequence (P11412 whole entry A51D) above, with D51N counted along it

Regarding `NC(=O)c1ccc[n+]([C@@H]2O[C@H](COP(=O)(O)OP(=O)(O)OC[C@H]3O[C@@H](n4cnc5c(N)ncnc54)[C@H](O)[C@@H]3O)[C@@H](O)[C@H]2O)c1` [NAD+], the “NAD+ usage” value is “Yes” in data set [1]; “No” in data set [2]; “No” in [3]; “No” in data set [4]; “No” in data set [5]; “No” in data set [6]. The “NAD+ usage” value in data set [7] and in [8] was “No” throughout.

In the case of `NC(=O)c1ccc[n+]([C@@H]2O[C@H](COP(=O)(O)OP(=O)(O)OC[C@H]3O[C@@H](n4cnc5c(N)ncnc54)[C@H](OP(=O)(O)O)[C@@H]3O)[C@@H](O)[C@H]2O)c1` [NADP+], the “NADP+ usage” value in [1] is recorded as “No”; in [2], “Yes”; in data set [3], “No”; in [4] it was “Yes”; in data set [5] it was “Yes”; in [6] it was “Yes”. In addition, the “NADP+ usage” value in data set [7] and in data set [8] was “Yes” throughout.

B1: Ruminococcus flavefaciens xylose isomerase chimera XI-Rp5 (first 5 amino acids of Piromyces xylose isomerase), SEQ ID NO: 56 (Ruminococcus flavefaciens; … (protein)
chain: MAKEYFSNIGKIQYQGPKSTDPLSFKYYNPEEVINGKTMREHLKFALSWWHTMGGDGTDMFGCGTTDKTWGQSDPAARAKAKVDAAFEIMDKLSIDYYCFHDRDLSPEYGSLKATNDQLDIVTDYIKEKQGDKFKCLWGTAKCFDHPRFMHGAGTSPSADVFAFSAAQIKKALESTVKLGGNGYVFWGGREGYETLLNTNMGLELDNMARLMKMAVEYGRSIGFKGDFYIEPKPKEPTKHQYDFDTATVLGFLRKYGLDKDFKMNIEANHATLAQHTFQHELRVARDNGVFGSIDANQGDVLLGWDTDQFPTNIYDTTMCMYEVIKAGGFTNGGLNFDAKARRGSFTPEDIFYSYIAGMDAFALGFRAALKLIEDGRIDKFVADRYASWNTGIGADIIAGKADFASLEKYALEKGEVTASLSSGRQEMLESIVNNVLFSL
notes: E2 XI (CAB76571.1; MAKEY) on Ruminococcus XI
What is called Km is the substrate concentration at which the rate is half of its maximum. As for B1, the Km in [9] came to 66.5 mM.

B2: Ruminococcus flavefaciens xylose isomerase chimera XI-Rp10 (first 10 amino acids of Piromyces xylose isomerase), SEQ ID NO: 58 (Ruminococcus flavefaciens; … (protein)
chain: MAKEYFPQIQQYQGPKSTDPLSFKYYNPEEVINGKTMREHLKFALSWWHTMGGDGTDMFGCGTTDKTWGQSDPAARAKAKVDAAFEIMDKLSIDYYCFHDRDLSPEYGSLKATNDQLDIVTDYIKEKQGDKFKCLWGTAKCFDHPRFMHGAGTSPSADVFAFSAAQIKKALESTVKLGGNGYVFWGGREGYETLLNTNMGLELDNMARLMKMAVEYGRSIGFKGDFYIEPKPKEPTKHQYDFDTATVLGFLRKYGLDKDFKMNIEANHATLAQHTFQHELRVARDNGVFGSIDANQGDVLLGWDTDQFPTNIYDTTMCMYEVIKAGGFTNGGLNFDAKARRGSFTPEDIFYSYIAGMDAFALGFRAALKLIEDGRIDKFVADRYASWNTGIGADIIAGKADFASLEKYALEKGEVTASLSSGRQEMLESIVNNVLFSL
For B2, the Michaelis constant (Km) in [10] came to 75.8 mM.

B3: Ruminococcus flavefaciens xylose isomerase chimera XI-Rp15 (first 15 amino acids of Piromyces xylose isomerase), SEQ ID NO: 60 (Ruminococcus flavefaciens; … (protein)
chain: B2 chain with Q11K, Y12I, Q13K, G14F, P15E
On to B3, for which, in data set [11], the Km was 49.3 mM.

B4: Ruminococcus flavefaciens xylose isomerase (hot rod) variant G179A (Ruminococcus flavefaciens; G179A) (protein)
chain: B2 chain with A2E, K3F, E4F, Y5S, F6N, P7I, Q8G, I9K, Q10I, G179A
notes: expressed in S. cerevisiae, soluble extract
Turning to B4, in data set [12], the Michaelis-Menten constant (Km) is recorded as 83.82 mM.
